Experimental data reported in patent US20100216116A1, “VIRAL LATENCY MODEL” (priority 2007, published 2010).
Where “and” joins values, the source holds several entries; their conditions need not be identical. Equal values may be shown once.

Legend:
Type in all cases: cell-based
[1] = system: IE180 expression in PRV infected porcine TG neurons
[2] = system: pseudorabies virus (PRV) strain Becker in porcine trigeminal ganglion (TG) neurons
[3] = system: HSV-1 strain F in porcine TG neurons
[4] = system: dormant PRV in porcine TG neurons

Molecule: IFN-α
- IE180 expression in discrete nuclear foci after withdrawal [1]: no infected neurons showing IE180 protein expression in discrete nuclear foci could be detected
- infected neurons with IE180 in discrete nuclear compartments [1]: detected in all infected neurons
- infected neurons with localized nuclear IE180 expression [1]: 45%
- infected neurons without any IE180 staining [1]: 55%
- TG neurons with no detectable expression of late viral antigens [2]: ~90%
- infected neurons with spread of new virus to surrounding non-neuronal cells [2]: ~4%
- neurons with late viral antigen expression limited to the golgi without spread [2]: ~6%
- neurons without detectable expression of late viral proteins after withdrawal [2]: 60%
- reduction of productive virus infection [2]: 64% and 98%
- expression of HSV-1 gD protein after withdrawal [3]: no detectable expression of HSV-1 gD protein was found in any neuron
- productive HSV-1 infection [3]: completely abolished

Molecule: C=C[C@@]1(C)CC(=O)[C@]2(O)[C@@]3(C)[C@@H](O)CCC(C)(C)[C@@H]3[C@H](O)[C@H](OC(C)=O)[C@@]2(C)O1 [forskolin, Forskolin]
- infected neurons showing expression of late viral proteins [4]: 70%
- reactivation of PRV in neurons that contained dormant virus at 120 hpi [4]: 50%

B1: IFN-γ (protein, UniProt P01579 24-161, looked up)
Interferon gamma: QDPYVKEAENLKKYFNAGHSDVADNGTLFLGILKNWKEESDRKIMQSQIVSFYFKLFKNFKDDQSIQKSVETIKEDMNVKFFNSNKKKRDDFEKLTNYSVTDLNVQRKAIHELIQVMAELSPAAKTGKRKRSQMLFRG
- infected neurons without detectable late viral protein expression [2]: Over 90%
- reduction of productive virus infection [2]: 45% and 81%
- virus spread in the inner chamber [2]: extensive virus spread
